Assay results as given in US5519028A, “Antiviral preparations” (priority 1992, dated 1996).

Experiments:
Assay type in all cases: cell-based, human
interleukin-6 = test: IL-6 production by monocytes of HIV-positive donors
Procedure: (§1) The effects of flavopereirine on the production of primary (IL-1β and TNF-α) and secondary (IL-6) cytokines by monocytes was also tested. The adhesive monocytes used were taken from the blood of two types of donors:
HIV-positive donors from medical consultations. These individuals were in the early stages of HIV infection and, at the moment of taking the blood, were not undergoing any treatment. The risk factors involved were intravenous drug abuse for six of the donors, sexual transmission for three and blood transfusion (in Zaire) for one patient. No correlation was found between the risk factors and the results of the experiments.
The response of the monocytes taken from the various HIV-positive donors was tested in terms of spontaneous response. The quantities of cells received were low (the donors were not affected by cytapheresy), and the experiments were therefore limited by the number of cells available.
Interleukin-4 was used at the same time as flavopereirine H, since it has been shown prior to these experiments that this cytokine blocks the spontaneous production of interleukin-6 in certain HIV-positive patients.
In five cases, […] was used for comparison, since this, too, blocks the production of IL-6 in normal monocytes stimulated by LPS.

TNF-α = TNF-α production by monocytes of normal donors; conditions: 1000 U/ml, 48 hours
Procedure: as §1
(§2) Normal donors--voluntary blood donors who attended the blood bank of the Pitie-Salpetriere Hospital, Paris, France; and
(§3) Product H was not used in these experiments at a rate of more than 20 μg/ml water, since above this rate, net toxicity could have been produced.

IL-1β = IL-1β production by monocytes of normal donors; conditions: 1000 U/ml, 48 hours; except donor #10
Procedure: as §1, §2, §3

“Interleukin-9: blocks the production of IL-6 in normal monocytes stimulated by LPS” was tested, and the “compound effect with interleukin-4 on IL-6 production” value (interleukin-6; combined with interleukin-4, five cases) was “never has a compound effect to that of interleukin-4” and the “maximum inhibition of spontaneous production of IL-6” value (interleukin-6; five cases) was ≤ 50%.

For “interferon: stimulation of monocytes over a period of 48 hours with interferon (1000 U/ml) [reference compound]”, the “production of primary cytokines (TNF-α)” value (TNF-α) was “did not cause any production of primary cytokines” and the “production of primary cytokines (IL-1β)” value (IL-1β) was “did not cause any production of primary cytokines, except in donor #10 in 1L-1β”.

B1: Interleukin-4: cytokine that blocks the spontaneous production of interleukin-6 in certain HIV-positive patients (protein, UniProt P05112 25-153, looked up)
Interleukin-4: HKCDITLQEIIKTLNSLTEQKTLCTELTVTDIFAASKNTTEKETFCRAATVLRQFYSHHEKDTRCLGATAQQFHRHKQLIRFLKRLDRNLWGLAGLNSCPVKEANQSTLENFLERLKTIMREKYSKCSS
For B1, the “inhibition of production of IL-6” value (interleukin-6; alone, never total, p<0.05) was “inhibited the production of IL-6, but this inhibition was never total”.
